Source: paper PMC6445168, “Design, synthesis and antimalarial activity of novel bis{N-[(pyrrolo[1,2-a]quinoxalin-4-yl)benzyl]-3-aminopropyl}amine derivatives” (Journal of Enzyme Inhibition and Medicinal Chemistry, 2017)
Structures can show the parent of a compound that is named as a salt. Where two headings read alike, the source gives them in different places. Each block holds one molecule with its values, some of them ahead of it.

What was measured:
[1] = tested on: P. falciparum CQ-resistant strain W2; test: In vitro antiplasmodial activity, SYBR Green I fluorescence-based method, W2 strain; format: cell-based, Plasmodium falciparum; details: for IC50: Plasmodium falciparum, read-out: P. falciparum strains IC50 values, W2; for Selectivity Index HepG2/W2: ratio CC50 HepG2 / IC50 W2
Experimental: (§1) The in vitro antiplasmodial activities were tested over concentrations ranging from 39 nM to 40 μM against culture-adapted Plasmodium falciparum reference strains 3D7 and W2. […] The parasites were cultivated in RPMI medium (Sigma-Aldrich, Lyon, France) supplemented with 0.5% Albumax I (Life Technologies corporation, Paisley, United Kingdom), hypoxanthine (Sigma-Aldrich), gentamicin (Sigma-Aldrich), and human erythrocytes and were incubated at 37 °C in a candle jar, as described previously. The P. falciparum drug susceptibility test was carried out in 96-well flat bottom sterile plates under a final volume of 250 μL. After a 48 h incubation with the drugs, quantities of DNA in treated and control cultures of parasites in human erythrocytes were compared according to the SYBR Green I (Sigma-Aldrich) fluorescence-based method[38]^,[39]. Briefly, after incubation, plates were frozen at -20 °C until use. They were then left to thaw for 2 h at room temperature and 100 μL of the homogenized culture were transferred to 96-well flat bottom sterile black plates (Nunc Inc) already containing 100 μL of the SYBR Green I lysis buffer (2xSYBR Green, 20 mM Tris base pH 7.5, 5 mM EDTA, 0.008% w/v saponin, 0.08% w/v Triton X-100). […] Plates were incubated for 1 h at room temperature and then read on a fluorescence plate reader (Tecan, Austria) using excitation and emission wavelengths of 485 and 535 nm, respectively.

[2] = tested on: P. falciparum CQ-sensitive strain 3D7; test: In vitro antiplasmodial activity, SYBR Green I fluorescence-based method, 3D7 strain; format: cell-based, Plasmodium falciparum; details: for IC50: Plasmodium falciparum, 3D7, 48 h, read-out: P. falciparum strains IC50 values, 3D7; for Selectivity Index HepG2/3D7: ratio CC50 HepG2 / IC50 3D7
Experimental: as §1

[3] = tested on: L. donovani (MHOM/IN/00/DEVI) promastigotes; test: In vitro antileishmanial activity on promastigotes, MTT assay; format: cell-based; details: Leishmania donovani, 72 h incubation, mean ± SD of three independent experiments
Experimental: L. donovani (MHOM/IN/00/DEVI) used in this study was provided by the CNR Leishmania (Montpellier, France). The effects of the tested compounds on the growth of L. donovani (MHOM/IN/00/DEVI)promastigotes were assessed by MTT assay[41] .Briefly, promastigotes in log-phase in Schneider′s medium supplemented with 20% fetal calf serum (FCS), 2 mM L-glutamine and antibiotics (100 U/mL penicillin and 100 μg/mL streptomycin), were incubated at an average density of 10^6 parasites/mL in sterile 96-well plates with various concentrations of compounds dissolved in DMSO (final concentration less than 0.5% v/v), in duplicate. Appropriate controls treated by DMSO and pentamidine or amphotericin B (reference drugs purchased from Sigma-Aldrich) were added to each set of experiments. After a 72 h incubation period at 27 °C, parasite metabolic activity was determined. Each plate-well was then microscope-examined for detecting possible precipitate formation. 20 μL of MTT 3–(4,5-dimethylthiazol-2-yl)-2,5-diphenyltetrazolium bromide) solution (5 mg/mL) were added to each well followed by incubation for another 4 h. The enzyme reaction was then stopped by addition of 100 μL of 50% isopropanol – 10% sodium dodecyl sulfate[42] .Plates were shaken vigorously (300 rpm) for 10 minutes and the absorbance measured in a plate reader at 570 nm in a BIO-TEK ELx808 Absorbance Microplate Reader. […] IC50 were calculated by non-linear regression analysis processed on doseresponse curves, using TableCurve 2D V5.0 software. IC50 values represent the mean value calculated from three independent experiments.

[4] = Cytotoxicity evaluation, MTT assay; format: cell-based, human; details: human, HepG2 cells (hepatocarcinoma cell line, ATCC HB-8065); HepG2, 72 h incubation, mean ± SD of three independent experiments
Experimental: (§2) These assays were performed toward the human HepG2 cell line (HepG2 CC50). […] These cells express many of the hepatocyte-specific metabolic enzymes, thus enabling the cytotoxicity of tested product metabolites to be evaluated. […] Duplicate assays were performed for each sample. Each plate-well was then microscope-examined for detecting possible precipitate formation before the medium was aspirated from the wells. 100 μL of MTT solution (0.5 mg/mL in medium without FCS) were then added to each well. […] After this time, the MTT solution was removed and DMSO (100 μL) was added to dissolve the resulting blue formazan crystals. Plates were shaken vigorously (300 rpm) for 5 minutes. The absorbance was measured at 570 nm with 630 nm as reference wavelength spectrophotometer using a BIO-TEK ELx808 Absorbance Microplate Reader. DMSO was used as blank and doxorubicin (Sigma Aldrich) as positive control. Cell viability was calculated as percentage of control (cells incubated without compound). The 50% cytotoxic concentration was determined from the dose-response curve by using the TableCurve 2D V5.0 software (Systat Software, San Jose, CA).

[5] = tested on: Plasmodium telomeric quadruplex FPf1T; test: FRET melting experiments, FPf1T; format: binding, Plasmodium falciparum; details: compound at 5 μM, 200 nM oligonucleotide, K+ condition; result in words
Experimental: (§3) FRET melting experiments were performed with dual-labeled oligonucleotides mimicking the Plasmodium telomeric sequences FPf1T [FAM-^5′(GGGTTTA)3-GGG^3′-TAMRA] and FPf8T [FAM-^5′(GGGTTCA)3GGG^3′-TAMRA] and the human telomeric sequence F21T [FAM-(GGGTTA)3-GGG^3′- TAMRA][36]^,[43]. The oligonucleotides were prefolded in 10 mM lithium cacodylate buffer (pH 7.2), with 10 mM KCl and 90 mM LiCl (K^+ condition). […] The data obtained were normalized between 0 and 1, and the temperature required for half-denaturationof oligonucleotides corresponded to the emission value of 0.5 was calculated as ΔTm. Each experiment was performed in duplicate with 200 nM of labeled oligonucleotide and 0, 1, 2, or 5 μM of compound under K^+ condition. For each compound, two independent experiments were carried out. The data were plotted using OriginPro 9.1 software (OriginLab Corporation, Northampton, MA).

[6] = tested on: Plasmodium telomeric quadruplex FPf8T; test: FRET melting experiments, FPf8T; format: binding, Plasmodium falciparum; details: compound at 5 μM, 200 nM oligonucleotide, K+ condition; result in words
Experimental: as §3

[7] = tested on: human telomeric quadruplex F21T; test: FRET melting experiments, F21T; format: binding; details: compound at 5 μM, 200 nM oligonucleotide, K+ condition; result in words
Experimental: as §3

HepG2 cell line = test: Cytotoxicity evaluation, MTT assay; format: cell-based, human; details: HepG2, 72 h incubation, mean ± SD of three independent experiments
Experimental: as §2

[8] = chloroquine-resistant strain W2, 48 h incubation
[9] = chloroquine-sensitive strain 3D7, 48 h incubation

melting point: 209 to 211 °C
Structure (SMILES): CN(CCCNCc1cccc(-c2nc3ccccc3n3cccc23)c1)CCCNCc1cccc(-c2nc3ccccc3n3cccc23)c1 (as salt: ammonium) [1m, Bis{N-[3-(pyrrolo[1,2-a]quinoxalin-4-yl)benzyl]-3-aminopropyl}methylamine]

melting point: 188 to 191 °C
Structure (SMILES): COc1ccc2nc(-c3cccc(CNCCCN(C)CCCNCc4cccc(-c5nc6ccc(OC)cc6n6cccc56)c4)c3)c3cccn3c2c1 (as salt: ammonium) [1o, Bis{N-[3–(8-methoxypyrrolo[1,2-a]quinoxalin-4-yl)benzyl]-3-aminopropyl}methylamine]

melting point: 234 to 237 °C
Structure (SMILES): COc1ccc2nc(-c3cccc(CNCCCN4CCN(CCCNCc5cccc(-c6nc7ccc(OC)cc7n7cccc67)c5)CC4)c3)c3cccn3c2c1 (as salt: ammonium) [1p, Bis{N-[3–(8-methoxypyrrolo[1,2-a]quinoxalin-4-yl)benzyl]-3-aminopropyl}piperazine]

melting point: > 260 °C
Structure (SMILES): c1ccc2c(c1)cc1c(-c3ccc(CNCCCN4CCN(CCCNCc5ccc(-c6nc7ccccc7n7c6cc6ccccc67)cc5)CC4)cc3)nc3ccccc3n12 (as salt: ammonium) [1q, Bis{N-[4-(indolo[1,2-a]quinoxalin-6-yl)benzyl]-3-aminopropyl}piperazine]

melting point: 192 to 194 °C
Structure (SMILES): COc1ccc2c(c1)nc(-c1ccc(CNCCCN(CCCNCc3ccc(-c4nc5cc(OC)ccc5n5cccc45)cc3)CCCNCc3ccc(-c4nc5cc(OC)ccc5n5cccc45)cc3)cc1)c1cccn12 (as salt: ammonium) [1s, Tris{N-[4–(7-methoxypyrrolo[1,2-a]quinoxalin-4-yl)benzyl]-3-aminopropyl}amine]

melting point: 184 to 187 °C
Structure (SMILES): COc1ccc2nc(-c3cccc(CNCCCN(CCCNCc4cccc(-c5nc6ccc(OC)cc6n6cccc56)c4)CCCNCc4cccc(-c5nc6ccc(OC)cc6n6cccc56)c4)c3)c3cccn3c2c1 (as salt: ammonium) [1t, Tris{N-[3–(8-methoxypyrrolo[1,2-a]quinoxalin-4-yl)benzyl]-3-aminopropyl}amine]

melting point: 141 to 144 °C
Structure (SMILES): COc1ccc2nc(-c3cccc(CNCCOCCOCCOCCNCc4cccc(-c5nc6ccc(OC)cc6n6cccc56)c4)c3)c3cccn3c2c1 (as salt: ammonium) [1u, N,N′-[oxybis(2,1-ethanediyloxy-2,1-ethanediyl)]bis-3–(8-methoxypyrrolo[1,2-a]quinoxalin-4-yl)benzylamine]

Structure (SMILES): COc1ccc2c(c1)nc(-c1ccc(CNCCCN3CCN(CCCNCc4ccc(-c5nc6cc(OC)ccc6n6cccc56)cc4)CC3)cc1)c1cccn12 [1e, Bis{N-[4–(7-methoxypyrrolo[1,2-a]quinoxalin-4-yl)benzyl]-3-aminopropyl}piperazine]
IC50 [1, 8]: 210 ± 30 nM
Selectivity Index HepG2/W2 [1]: 6.95
IC50 [2, 9]: 2620 ± 250 nM
Selectivity Index HepG2/3D7 [2]: 0.56
IC50 [3]: 2520 ± 100 nM
CC50 at 72 h [4]: 1460 ± 600 nM
Thermal stabilization (ΔTm) on FPf1T [5]: more active on the Plasmodium sequences with the higher ΔTm
Thermal stabilization (ΔTm) on FPf8T [6]: more active on the Plasmodium sequences with the higher ΔTm

Structure (SMILES): COc1cccc2nc(-c3ccc(CNCCCN4CCN(CCCNCc5ccc(-c6nc7cccc(OC)c7n7cccc67)cc5)CC4)cc3)c3cccn3c12 [1i, Bis{N-[4–(9-methoxypyrrolo[1,2-a]quinoxalin-4-yl)benzyl]-3-aminopropyl}piperazine]
IC50 [1, 8]: 320 ± 40 nM
Selectivity Index HepG2/W2 [1]: 4.16
IC50 [2, 9]: 1280 ± 100 nM
Selectivity Index HepG2/3D7 [2]: 1.04
IC50 [3]: 1580 ± 100 nM
CC50 at 72 h [4]: 1330 ± 300 nM
Thermal stabilization (ΔTm) on FPf1T [5]: more active on the Plasmodium sequences with the higher ΔTm
Thermal stabilization (ΔTm) on FPf8T [6]: more active on the Plasmodium sequences with the higher ΔTm

Structure (SMILES): CCN(CC)CCCC(C)Nc1ccnc2cc(Cl)ccc12 (centres unmarked) [Chloroquine, reference compound]
IC50 ([1]; W2, 48 h): 200 ± 30 nM
IC50 [2]: 80 ± 3 nM
Thermal stabilization (ΔTm) on FPf1T [5]: very slight stabilization
Thermal stabilization (ΔTm) on FPf8T [6]: very slight stabilization
Thermal stabilization (ΔTm) on F21T [7]: very slight stabilization

Structure (SMILES): OC(c1cc(C(F)(F)F)nc2c(C(F)(F)F)cccc12)C1CCCCN1 (centres unmarked) [Mefloquine, reference compound]
IC50 [1, 8]: 32 ± 1 nM
IC50 [2, 9]: 80 ± 8 nM
Thermal stabilization (ΔTm) on FPf1T [5]: very slight stabilization
Thermal stabilization (ΔTm) on FPf8T [6]: very slight stabilization
Thermal stabilization (ΔTm) on F21T [7]: very slight stabilization

IC50 [3]: 5500 ± 800 nM
Structure (SMILES): N=C(N)c1ccc(OCCCCCOc2ccc(C(=N)N)cc2)cc1 [Pentamidine, reference compound]
CC50 (HepG2 cell line): 2300 ± 500 nM
